Laboratory results: US20220280578A1, “METHOD FOR TREATING ALZHEIMER'S DISEASE BY REGULATING INTESTINAL MICROORGANISMS” (SHANGHAI GREEN VALLEY PHARMACEUTICAL CO., LTD., priority 2019, published 2022)
Entries after “also recorded” stand apart in the source; their conditions may differ.

How the values were obtained:
[1] = target: T1, SLC7A5 (Mus musculus, UniProt Q9Z127); assay: Uptake of 13C-labelled phenylalanine by CD4+ T cells; assay type: cell-based; details: 0.5 h incubation
T1 construct: endogenous in cells; host or cells: Primary naive CD4+ T cells from splenocytes of C57BL/6 mice, used as Th0 cells and IL-12-induced Th1 cells
T1 sequence (Q9Z127 whole entry): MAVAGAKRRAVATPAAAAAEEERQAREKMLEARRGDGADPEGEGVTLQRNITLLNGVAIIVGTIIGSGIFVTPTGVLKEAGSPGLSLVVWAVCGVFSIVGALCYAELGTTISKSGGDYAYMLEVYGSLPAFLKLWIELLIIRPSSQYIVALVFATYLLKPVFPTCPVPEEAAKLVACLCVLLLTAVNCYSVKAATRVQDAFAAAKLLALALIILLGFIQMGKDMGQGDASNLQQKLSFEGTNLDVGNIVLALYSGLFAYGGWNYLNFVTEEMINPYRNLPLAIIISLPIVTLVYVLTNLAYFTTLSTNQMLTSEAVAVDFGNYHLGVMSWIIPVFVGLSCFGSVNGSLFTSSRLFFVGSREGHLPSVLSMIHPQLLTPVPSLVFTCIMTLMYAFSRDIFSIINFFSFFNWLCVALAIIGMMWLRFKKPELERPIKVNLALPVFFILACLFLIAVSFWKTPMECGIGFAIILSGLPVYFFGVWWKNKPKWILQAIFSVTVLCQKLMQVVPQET
T1 sequence (P10852 whole entry partner): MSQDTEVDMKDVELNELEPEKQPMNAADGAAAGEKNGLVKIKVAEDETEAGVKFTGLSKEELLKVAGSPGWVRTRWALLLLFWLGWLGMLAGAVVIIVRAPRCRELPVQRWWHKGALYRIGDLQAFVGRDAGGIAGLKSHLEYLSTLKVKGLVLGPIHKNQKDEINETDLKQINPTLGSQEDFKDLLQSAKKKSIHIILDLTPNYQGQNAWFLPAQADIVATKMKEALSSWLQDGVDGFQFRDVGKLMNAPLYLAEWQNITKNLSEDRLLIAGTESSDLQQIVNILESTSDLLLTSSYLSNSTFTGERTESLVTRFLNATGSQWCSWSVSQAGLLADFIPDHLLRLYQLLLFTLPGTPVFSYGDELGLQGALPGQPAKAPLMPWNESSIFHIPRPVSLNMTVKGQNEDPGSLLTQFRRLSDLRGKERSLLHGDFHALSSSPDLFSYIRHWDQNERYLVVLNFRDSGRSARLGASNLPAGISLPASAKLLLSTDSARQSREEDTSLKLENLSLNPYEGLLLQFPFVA
Description: Uptake of phenylalanine. Naive CD4^+ T cells were separated from the is splenocytes of 8-month-old C57BL/6 female mice using the Naive CD4^+ T cell Isolation Kit (Stem Cell, Cat No. 19765) and were induced to Th1 differentiation by 20 ng/mL IL-12. After 3 days, a total of 5×10^5 cells/well Th1 cells and Th0 cells in 0.5 mL of RPMI-1640 medium were plated into 48-well plates. ^13C-labelled phenylalanine and 5 mM amino transporter inhibitor BCH were added into indicated wells. After 0.5 h, cells were collected and washed twice with ice-cold D-PBS. 50 μL deionized water was added and cells were lysed through freezing and thawing twice at −80° C. The cell lysate was centrifuged at 12000×g for 10 min and ^13C-labelled phenylalanine in the supernatant was analyzed by Mass spectrometry.

[2] = tested on: 5XFAD mice; assay: JPH 203 in 5XFAD mice, Th1 cells in the brain by flow cytometry; assay type: in vivo, mouse; details: 6-month-old 5XFAD mice, 50 mg/kg intraperitoneal every day for one month, vs vehicle
Description: Flow cytometry sample preparation and analysis. Mice were anesthetized, blood samples were collected into EDTA-containing tubes, and red blood cells were removed using 1×red blood lysis buffer. Before tissue is collection, the brains were perfused with ice-cold PBS to avoid sampling the circulating blood immune cells, and the brains were removed, chopped into pieces and dissected according to the introduction of the Adult Brain Dissociation Kit (Miltenyi, Cat No. 130-107-677) using the gentleMACS dissociator (Miltenyi Biotec). The brain homogenate was filtered through a 70-μm cell strainer and centrifuged at 300×g for 5 min at 4° C. […] All samples were counted and adjusted to a density of 2-3 ×10^6/100 μL, labeled with a Live/Dead kit for 30 min, and then centrifuged at 500×g for 3 min at 4° C. […] Relevant negative control, Fluorescence Minus One (FMO) control and each fluorescence compensation sample were used to adjust fluorescence compensation and identify the populations of interest. Cells were acquired on a BD Aria III cytometer, and data were analyzed using FlowJo software.
Amino acids could be taken by immune cells through specific transporters. […] One month after the administration, the mice were euthanized, and the proportion of pro-inflammatory Th 1 cells in the brains of the mice in the control group and the JPH 203 treatment group was analyzed by flow cytometry. […]

[3] = tested on: naive CD4+ T cells; assay: In vitro differentiation and proliferation induced by phenylalanine and isoleucine; assay type: cell-based, mouse; details: amino acid added directly to naive CD4+ T cell culture; for Th1 cell proliferation: CellTrace
Description: In Vitro differentiation and proliferation induced by phenylalanine and isoleucine. Naive CD4^+ T cells were separated from the splenocytes of 8-month-old C57BL/6 female mice using the Naive CD4^+ T cell Isolation Kit (Stem Cell, #19765), and the cells were stained with CellTrace (Thermo Fisher, #C34557). A total of 1×10^5 cells/well in 0.2 mL of RPMI-1640 medium were plated in 96-well plates, and the culture medium was supplemented with cytokines or blocking antibodies. Th0: 10 ng/mL mIL-2; Th1:10 ng/mL mIL-2, 5000 ng/mL 11B11. Phenylalanine (final concentration, 2 mmol/L), isoleucine (final concentration, 2 mmol/L) and OM1 (final concentration, 100 μg/mL) were added into the indicated wells, respectively. After incubation at 37° C. in 5% CO2 for 5 days, cells were acquired on a BD Fortessa cytometer, and data were analyzed using FlowJo software.

[4] = tested on: WT mice (C57); assay: Intraperitoneal injection of phenylalanine and isoleucine, blood Th1 cells; assay type: in vivo, mouse; details: intraperitoneal injection 50 mg/kg for 4 days

Row | uptake of 13C-labelled phenylalanine by CD4+ T cells [1] | Compound | proportion of pro-inflammatory Th1 cells in the mouse brain ([2]; 50 mg/kg) | proportion of pro-inflammatory Th1 cells in the mouse brain ([2]; listed as JPH 203, 50 mg/kg) | Th0 cell differentiation into Th1 cells [3] | Th1 cell proliferation [3] | Th1 cell count in the blood [4]
1 | blocked | Nc1cc(COc2c(Cl)cc(C[C@H](N)C(=O)O)cc2Cl)c2oc(-c3ccccc3)nc2c1 [JPH203] | effectively inhibits; also recorded: significantly downregulated | significantly reduces | – | – | –
2 | – | CC[C@H](C)[C@H](N)C(=O)O [isoleucine] | – | – | increased | increased | increased significantly
3 | – | N[C@@H](Cc1ccccc1)C(=O)O [phenylalanine] | – | – | increased | increased | increased significantly
